According to patent publication US8158811B2, “Unsaturated fatty hydroxy acid derivatives and the dermocosmetologic use thereof” (Pierre Fabre Dermo-Cosmetique, priority 2005, dated 2012):

How the values were obtained:
[1] = tested on: membrane lipids, fibroblast line L929; experiment: TBARS test, lipid peroxidation after H2O2/Fe2+/Fe3+; format: cell-based, murin; settings: 400 μg/ml
[2] = tested on: intracellular AOSs, fibroblast line L929; experiment: in vitro assay of intracellular AOSs (H2DCF-DA probe) after H2O2/iron oxidative stress; format: cell-based, murin; settings: 400 μg/ml, pre-incubation 3 h, L929, 18 tests
Source text: We set up an in vitro study model of oxidative stress induced by H2O2/iron as H2O2 generates huge amounts of intracellular AOSs as a result of a chain reaction triggered by oxidation of membrane lipids.
This technique is based on the use of a fluorescent probe, 6-carboxy-2′,7′-dichlorodihydro fluorescein diacetate, di (acetoxymethyl ester) (H2DCF-DA) which once it penetrates into the cell is deacetylated by intracellular esterases and thus forms H2DCF. This product is oxidized by intracellular AOSs into a highly fluorescent compound: 2′,7′-dichlorofluorescein (DCF) (Suematsu M et al., 1996, Free Radicals Practical Approach, Punchard ed. P 83-99).
The materials and methods used for in vitro assay of intracellular AOSs are given below. • a) Cell tool • Cutaneous murin fibroblast cell line L929. • b) Materials • 96 well flat based microplate. • Cytofluor II cytofluorameter: Ref. PERCEPTIVE BIOSYSTEMS. • c) Reagents • Cell culture reagents: • Dulbecco's Modified Eagle Medium as the culture medium (DMEM) • Foetal calf serum • Phosphate buffer PBS pH 7.4 • Trypsin EDTA (1X) Fluorescent probe • 6-carboxy-2′,7′-dichlorodihydrofluorescein diacetate, di(acetoxymethyl ester) (PM.675,43) Cell stimulation products • Hydrogen peroxide (H2O2) 3% Ref. GIFRER (Gifrer Barbezat Laboratory) • Ferrous ammonium sulphate (Fe^2+) • Ferric ammonium sulphate (Fe^3+) • d) Products tested:
For the evaluation of unsaturated fatty hydroxy acid derivatives, the dilutions are prepared in freshly prepared culture medium for a concentration range of 0.02, 0.2, 2 and 20 ng/ml. • e) Protocol. Cell culturing.
Cells from the fibroblast line L929 were cultured in 96-well flat base microplates in 100 μl of DMEM supplemented with 10% foetal calf serum. These were incubated overnight at 37° C. in a humid atmosphere at 5% CO2. The blank plate without cells was evaluated using 6 wells.
Dilutions of the products to be tested and reference molecule were made up in culture medium without foetal calf serum then deposited in 7 wells at a rate of 100 μl per well.
Cells were then incubated for 3 hours at 37° C. in a humid atmosphere at 5% CO2.
Cells were rinsed in PBS 1X at a rate of 100 μl per well. They were then incubated for 30 minutes at 37° C. in a humid atmosphere at 5% CO2 with 50 μl of the H2DCF-DA probe at 5 μM.
After 30 minutes of contact with the probe alone, cells were incubated for 30 minutes at 37° C. in a humid atmosphere at 5% CO2 with the addition of 25 μl of H2O2 at 800 μM and 25 μl of ferrous iron and ferric iron solution at 8 mM in order to obtain final concentrations of 200 μM of H2O2 and 2 mM of ferrous iron and ferric iron.
Cells were then rinsed with PBS 1X at a rate of 100 μl per well then incubated for 30 minutes at 37° C. in a humid atmosphere at 5% CO2 with 100 μl of PBS 1X.
This incubation for 1 h 30 minutes at 37° C. allows intracellular esterases to deacetylate the probe into H2DCF which can be oxidized by the intracellular AOSs into DCF: a fluorescent compound whose formation is proportional to the quantity of intracellular AOSs.
The intensity of fluorescence is read on a cytofluorimeter at λexcitation=485 nm and λemission=530 nm. This reflects the amount of intracellular AOS produced.
The ratio below makes it possible to calculate the % protection against the production of intracellular AOSs for each product concentration tested (because the intensity of fluorescence or IF reflects the release of intracellular AOSs)
• Pre-incubation: 3 h • Number of tests=3 for all compounds. • Number of tests=18 for vit. E

Cc1c(C)c2c(c(C)c1O)CC[C@@](C)(CCC[C@H](C)CCC[C@H](C)CCCC(C)C)O2 [Vit. E, alphatocopherol]
% membrane lipid protection, Mean [1]: 44.66%
% membrane lipid protection, Mean ([1]; listed as Vitamin E): protects cell membranes very effectively
Percentage inhibition of the intracellular production of AOS [2]: Vit. E 400 μg/ml 47%
